Source: patent publication US9809587B2, “Pesticidally active heterocyclic derivatives with sulphur containing substituents” (Syngenta Participations AG, priority 2014, dated 2017)

Experiments:
Type in all cases: in vivo
[1] = system: Bemisia tabaci (Cotton White Fly); test: Bemisia tabaci (cotton white fly), sprayed cotton leaf discs; conditions: foliar, 144 h, application rate of 200 ppm, adult white flies on cotton leaf discs, 6 days after incubation
Experimental: Example B1: Bemisia tabaci (Cotton White Fly)
Cotton leaf discs were placed on agar in 24-well microtiter plates and sprayed with aqueous test solutions prepared from 10′000 ppm DMSO stock solutions. After drying the leaf discs were infested with adult white flies. The samples were checked for mortality 6 days after incubation.

[2] = system: Diabrotica balteata (Corn Root Worm); test: Diabrotica balteata (corn root worm), sprayed maize sprouts; conditions: 96 h, application rate of 200 ppm, L2 larvae on maize sprouts, 4 days after infestation
Experimental: Example B2: Diabrotica balteata (Corn Root Worm)
Maize sprouts, placed on an agar layer in 24-well microtiter plates were treated with aqueous test solutions prepared from 10′000 ppm DMSO stock solutions by spraying. After drying, the plates were infested with L2 larvae (6 to 10 per well). The samples were assessed for mortality and growth inhibition in comparison to untreated samples 4 days after infestation.

[3] = system: Euschistus heros (Neotropical Brown Stink Bug); test: Euschistus heros (neotropical brown stink bug), sprayed soybean leaf; conditions: 120 h, application rate of 200 ppm, N-2 nymphs on soybean leaf, 5 days after infestation
Experimental: Example B3: Euschistus heros (Neotropical Brown Stink Bug)
Soybean leaf on agar in 24-well microtiter plates were sprayed with aqueous test solutions prepared from 10′000 ppm DMSO stock solutions. After drying the leaf were infested with N-2 nymphs. The samples were assessed for mortality in comparison to untreated samples 5 days after infestation.

[4] = system: Myzus persicae (Green Peach Aphid); test: Myzus persicae (green peach aphid), sprayed sunflower leaf discs; conditions: foliar, 144 h, application rate of 200 ppm, mixed ages on sunflower leaf discs, 6 days after infestation
Experimental: Example B4: Myzus persicae (Green Peach Aphid)
(§1) Sunflower leaf discs were placed on agar in a 24-well microtiter plate and sprayed with aqueous test solutions prepared from 10′000 ppm DMSO stock solutions. After drying, the leaf discs were infested with an aphid population of mixed ages. The samples were assessed for mortality 6 days after infestation.

[5] = system: Plutella xylostella (Diamond Back Moth); test: Plutella xylostella (diamond back moth), treated artificial diet; conditions: 120 h, application rate of 200 ppm, L2 larvae on artificial diet, 5 days after infestation, read-out: effect in at least one of the two categories (mortality or growth inhibition)
Method in brief: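 Artificial diet treated with aqueous dilutions of DMSO stocks (10′000 ppm stock), dried, then infested with 10-15 L2 larvae per well. Mortality and growth inhibition assessed versus untreated controls 5 days after infestation.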

[6] = system: Spodoptera littoralis (Egyqptian Cotton Leaf Worm); test: Spodoptera littoralis (Egyptian cotton leaf worm), sprayed cotton leaf discs; conditions: foliar, 72 h, application rate of 200 ppm, L1 larvae on cotton leaf discs, 3 days after infestation
Method in brief: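 Cotton leaf discs on agar were sprayed with aqueous dilutions made from 10′000 ppm DMSO stocks, then infested after drying with five L1 larvae. Mortality, anti-feedant effect and growth inhibition were scored against untreated discs 3 days after infestation. Control means at least one of these exceeds the untreated sample.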

[7] = system: Spodoptera littoralis (Egyqptian Cotton Leaf Worm); test: Spodoptera littoralis (Egyptian cotton leaf worm), compound in agar taken up by lettuce roots; conditions: 144 h, test rate of 12.5 ppm, uptake by lettuce roots from agar, 6 days after infestation, read-out: effect in at least one of the three categories (mortality, anti-feedancy, or growth inhibition)
Text: Example B8: Spodoptera littoralis (Egyqptian Cotton Leaf Worm)
Test compounds were applied by pipette from 10′000 ppm DMSO stock solutions into 24-well plates and mixed with agar. Lettuce seeds were placed on the agar and the multi well plate was closed by another plate which contains also agar. After 7 days the roots have absorbed the compound and the lettuce has grown into the lid plate. The lettuce leafs were now cut off into the lid plate. Spodoptera eggs were pipetted through a plastic stencil on a humid gel blotting paper and the plate closed with it. The samples were assessed for mortality, anti-feedant effect and growth inhibition in comparison to untreated samples 6 days after infestation.
The following compounds gave an effect of at least 80% in at least one of the three categories (mortality, anti-feedancy, or growth inhibition) at a test rate of 12.5 ppm: […]

[8] = system: Aedes aegypti (Yellow Fever Mosquito); test: Activity against Aedes aegypti (yellow fever mosquito), dried deposits in tissue culture plates; conditions: application rate of 200 ppm in ethanol, adult females, after 48 h
Experimental: Example B12: Activity Against Aedes aegypti (Yellow Fever Mosquito)
Test solutions, at an application rate of 200 ppm in ethanol, were applied to 12-well tissue culture plates. Once the deposits were dry, five, two to five days old adult female Aedes aegypti were added to each well, and sustained with a 10% sucrose solution in a cotton wool plug. Assessment of knockdown was made one hour after introduction, and mortality was assessed at 24 and 48 hours after introduction.
The following compounds gave at least 80% control of Aedes aegypti after 48 h: […]

[9] = system: Myzus persicae (Green Peach Aphid); test: Myzus persicae (green peach aphid), roots of pea seedlings in test solution; conditions: 144 h, test rate of 24 ppm, roots of infested pea seedlings in test solution, 6 days
Experimental: Example B5: Myzus persicae (Green Peach Aphid)
Roots of pea seedlings infested with an aphid population of mixed ages were placed directly in the aqueous test solutions prepared from 10′000 DMSO stock solutions. The samples were assessed for mortality 6 days after placing seedlings in test solutions.

[10] = system: Frankliniella occidentalis (Western Flower Thrips); test: Frankliniella occidentalis (western flower thrips), sprayed sunflower leaf discs; conditions: foliar, 168 h, application rate of 200 ppm, mixed ages on sunflower leaf discs, 7 days after infestation
Experimental: Example B11: Frankliniella occidentalis (Western Flower Thrips)
as §1, with “in” for “in a”, “plates” for “plate”, “[…]” for “10′000 ppm”, “drying” for “drying,”, “a Frankliniella” for “an aphid”, “7” for “6”

CCS(=O)(=O)c1cc(-n2ccc(C(F)(F)F)n2)cnc1-c1nc2cc(C(F)(F)F)ncc2n1C [Compound P2, 2-[3-ethylsulfonyl-5-[3-(trifluoromethyl)pyrazol-1-yl]-2-pyridyl]-3-methyl-6-(trifluoromethyl)imidazo[4,5-c]pyridine]
≥ 80%: mortality at 200 ppm [1] | mortality at 200 ppm [2] | mortality at 200 ppm [3] | mortality at 200 ppm [4] | percent effect (mortality or growth inhibition) at 200 ppm [5] | percent control (mortality, anti-feedant effect or growth inhibition) at 200 ppm [6] | percent control (mortality, anti-feedancy or growth inhibition) at 12.5 ppm [7] | pest or weed control at 200 ppm [8]

CCS(=O)(=O)c1cc(-c2ccc(C(F)(F)F)nc2)cnc1-c1nc2cc(C(F)(F)F)ncc2n1C [Compound P5]
≥ 80%: mortality at 200 ppm [1] | mortality at 200 ppm [2] | mortality at 200 ppm [3] | mortality at 200 ppm [4] | mortality at 24 ppm [9] | percent effect (mortality or growth inhibition) at 200 ppm [5] | percent control (mortality, anti-feedant effect or growth inhibition) at 200 ppm [6] | percent control (mortality, anti-feedancy or growth inhibition) at 12.5 ppm [7] | mortality at 200 ppm [10]

CCS(=O)(=O)c1cc(-c2cnn(C)c2)cnc1-c1nc2cc(C(F)(F)F)ncc2n1C [Compound P6]
≥ 80%: mortality at 200 ppm [1] | mortality at 200 ppm [2] | mortality at 200 ppm [3] | mortality at 200 ppm [4] | mortality at 24 ppm [9] | percent effect (mortality or growth inhibition) at 200 ppm [5] | percent control (mortality, anti-feedant effect or growth inhibition) at 200 ppm [6] | percent control (mortality, anti-feedancy or growth inhibition) at 12.5 ppm [7]

CCS(=O)(=O)c1cc(-c2ncc(C)cn2)cnc1-c1nc2cc(C(F)(F)F)ncc2n1C [Compound P22]
≥ 80%: mortality at 200 ppm [1] | mortality at 200 ppm [2] | mortality at 200 ppm [3] | mortality at 200 ppm [4] | mortality at 24 ppm [9] | percent effect (mortality or growth inhibition) at 200 ppm [5] | percent control (mortality, anti-feedant effect or growth inhibition) at 200 ppm [6] | percent control (mortality, anti-feedancy or growth inhibition) at 12.5 ppm [7]

CCS(=O)(=O)c1cc(-c2ncccc2Cl)cnc1-c1nc2cc(C(F)(F)F)ncc2n1C [Compound P32]
≥ 80%: mortality at 200 ppm [2] | mortality at 200 ppm [3] | mortality at 200 ppm [4] | percent effect (mortality or growth inhibition) at 200 ppm [5] | percent control (mortality, anti-feedant effect or growth inhibition) at 200 ppm [6] | percent control (mortality, anti-feedancy or growth inhibition) at 12.5 ppm [7] | mortality at 200 ppm [10]

CCS(=O)(=O)c1cc(-c2ccnnc2)cnc1-c1nc2cc(C(F)(F)F)ncc2n1C [Compound P33]
≥ 80%: mortality at 200 ppm [1] | mortality at 200 ppm [2] | mortality at 200 ppm [3] | mortality at 200 ppm [4] | mortality at 24 ppm [9]

CCS(=O)(=O)c1cc(-c2cccc[n+]2O)cnc1-c1nc2cc(C(F)(F)F)ncc2n1C [Compound P56]
≥ 80%: mortality at 200 ppm [2] | mortality at 200 ppm [3] | mortality at 200 ppm [4] | mortality at 24 ppm [9] | percent effect (mortality or growth inhibition) at 200 ppm [5] | percent control (mortality, anti-feedant effect or growth inhibition) at 200 ppm [6] | percent control (mortality, anti-feedancy or growth inhibition) at 12.5 ppm [7] | mortality at 200 ppm [10]

CCS(=O)(=O)c1cc(-c2cncc(C#N)c2)cnc1-c1nc2cc(C(F)(F)F)ncc2n1C [Compound P67]
≥ 80%: mortality at 200 ppm [1] | mortality at 200 ppm [2] | mortality at 200 ppm [3] | mortality at 200 ppm [4] | mortality at 24 ppm [9] | percent effect (mortality or growth inhibition) at 200 ppm [5]

CCS(=O)(=O)c1cc(-c2ccnc(F)c2)cnc1-c1nc2cc(C(F)(F)F)ncc2n1C [Compound P70]
≥ 80%: mortality at 200 ppm [1] | mortality at 200 ppm [2] | mortality at 200 ppm [3] | mortality at 200 ppm [4] | mortality at 24 ppm [9] | percent effect (mortality or growth inhibition) at 200 ppm [5] | percent control (mortality, anti-feedant effect or growth inhibition) at 200 ppm [6] | percent control (mortality, anti-feedancy or growth inhibition) at 12.5 ppm [7] | mortality at 200 ppm [10]

CCS(=O)(=O)c1cc(-n2ccc(Cl)n2)cnc1-c1nc2cc(C(F)(F)F)ncc2n1C [Compound P88]
≥ 80%: mortality at 200 ppm [1] | mortality at 200 ppm [2] | mortality at 200 ppm [3] | mortality at 200 ppm [4] | percent effect (mortality or growth inhibition) at 200 ppm [5] | percent control (mortality, anti-feedant effect or growth inhibition) at 200 ppm [6] | percent control (mortality, anti-feedancy or growth inhibition) at 12.5 ppm [7] | pest or weed control at 200 ppm [8]

CCS(=O)(=O)c1cc(-c2ncccn2)ccc1-c1nc2cc(C(F)(F)F)ncc2n1C [Compound P89]
≥ 80%: mortality at 200 ppm [2] | mortality at 200 ppm [3] | mortality at 200 ppm [4] | percent effect (mortality or growth inhibition) at 200 ppm [5] | percent control (mortality, anti-feedant effect or growth inhibition) at 200 ppm [6] | percent control (mortality, anti-feedancy or growth inhibition) at 12.5 ppm [7] | mortality at 200 ppm [10] | pest or weed control at 200 ppm [8]

CCS(=O)(=O)c1cc(-n2ccc(C(F)(F)F)n2)ccc1-c1nc2cc(C(F)(F)F)ncc2n1C [Compound P90]
≥ 80%: mortality at 200 ppm [1] | mortality at 200 ppm [2] | mortality at 200 ppm [3] | mortality at 200 ppm [4] | percent effect (mortality or growth inhibition) at 200 ppm [5] | percent control (mortality, anti-feedant effect or growth inhibition) at 200 ppm [6] | percent control (mortality, anti-feedancy or growth inhibition) at 12.5 ppm [7] | pest or weed control at 200 ppm [8]

CCS(=O)(=O)c1cc(-c2ccc(Cl)nc2)cnc1-c1nc2cc(C(F)(F)F)ncc2n1C [Compound P96]
≥ 80%: mortality at 200 ppm [1] | mortality at 200 ppm [2] | mortality at 200 ppm [3] | mortality at 200 ppm [4] | percent effect (mortality or growth inhibition) at 200 ppm [5] | percent control (mortality, anti-feedant effect or growth inhibition) at 200 ppm [6] | percent control (mortality, anti-feedancy or growth inhibition) at 12.5 ppm [7] | mortality at 200 ppm [10]

CCS(=O)(=O)c1cc(-c2nccc(C#N)n2)cnc1-c1nc2cc(C(F)(F)F)ncc2n1C [Compound P101]
≥ 80%: mortality at 200 ppm [2] | mortality at 200 ppm [3] | mortality at 200 ppm [4] | percent effect (mortality or growth inhibition) at 200 ppm [5] | percent control (mortality, anti-feedant effect or growth inhibition) at 200 ppm [6] | pest or weed control at 200 ppm [8]

CCS(=O)(=O)c1cc(-c2nccc(OC)n2)cnc1-c1nc2cc(C(F)(F)F)ncc2n1C [Compound P104]
≥ 80%: mortality at 200 ppm [2] | mortality at 200 ppm [3] | mortality at 200 ppm [4] | percent effect (mortality or growth inhibition) at 200 ppm [5] | percent control (mortality, anti-feedant effect or growth inhibition) at 200 ppm [6] | percent control (mortality, anti-feedancy or growth inhibition) at 12.5 ppm [7] | mortality at 200 ppm [10]

CCS(=O)(=O)c1cc(-c2ccnc(C(F)(F)F)n2)cnc1-c1nc2cc(C(F)(F)F)ncc2n1C [Compound P108]
≥ 80%: mortality at 200 ppm [1] | mortality at 200 ppm [2] | mortality at 200 ppm [3] | mortality at 200 ppm [4] | percent effect (mortality or growth inhibition) at 200 ppm [5] | percent control (mortality, anti-feedant effect or growth inhibition) at 200 ppm [6] | percent control (mortality, anti-feedancy or growth inhibition) at 12.5 ppm [7] | pest or weed control at 200 ppm [8]
